# Source: publication PMC6940354, “Comparative Assessment of the New PDE7 Inhibitor – GRMS-55 and Lisofylline in Animal Models of Immune-Related Disorders: A PK/PD Modeling Approach” (Pharmaceutical Research, 2020)
# Like-named read-outs stand apart in the source and are kept apart here.
# Assays:
# [1] = tested on: ConA-induced hepatitis in BALB/c mice; assay: ConA-induced hepatitis in mice; assay type: in vivo, mouse; settings: IP 30 min before ConA 20 mg kg^−1 IV, 8 h after ConA, rolipram 10 mg kg^−1, GRMS-55 and (±)-LSF 50 mg kg^−1, vs control group
# Description: ConA was dissolved in an appropriate volume of saline for injections to obtain a concentration of 2 mg mL^−1. Each of the investigated compounds was dissolved in a vehicle composed of DMSO and PEG 400 mixed at a ratio of 1:9 (v/v). Thirty minutes before ConA administration, mice were injected intraperitoneally (IP) with the investigated compounds dissolved in the vehicle at a dose of 50 mg kg^−1 or with the corresponding volume of vehicle alone in the case of control group. ConA was administered by IV route at a dose of 20 mg kg^−1 and 8 h later mice were sacrificed. Blood samples were harvested from each individual and allowed to clot for 30 min at room temperature. Subsequently, serum was separated by centrifugation (3000 x g, 10 min), collected, and stored at −80°C until analysis.
# (§1) TNF-α levels in LPS-stimulated rat blood in vitro and in rat plasma samples from the in vivo studies were analyzed by the Rat TNF-α Quantikine ELISA Immunoassay Kit (R&D Systems, USA) according to the manufacturer’s instructions. The assay was linear at the range of 12.5–800 pg mL^−1. Levels of TNF-α in mice serum were measured by ELISA Kits for Tumor Necrosis Factor Alpha (Cloud-Clone Corp., USA). This assay was linear at the range of 15.6–1000 pg mL^−1. Absorbance was measured at 450 nm using a POLARstar Omega multi-mode microplate reader (BMG LABTECH, Germany).
# Serum […] (AST) and alanine transaminase (ALT) activity was analyzed using the chemistry analyzer BS-800 (Shenzhen Mindray Bio-medical Electronics Co. ltd, China).
# [2] = tested on: TNF-α plasma levels in male Wistar rats with LPS-induced endotoxemia; assay: LPS-induced endotoxemia in rats, PK/PD model of plasma TNF-α; assay type: in vivo, rat; settings: for IC50: Rattus norvegicus, iv; for activity in inhibiting TNF-α release in vivo, times lower than that of rolipram: ratio of IC50 values to rolipram
# Description: Male Wistar rats were implanted with catheters (SAI Infusion Technologies, USA) into the jugular vein and after a two-day recovery period they were administered with LPS dissolved in saline at a dose of 1 mg kg ^−1 into the tail vein simultaneously with one of the investigated compounds. […] The doses of the compounds were selected based on the literature data or results of our previous experiments. Each control group received LPS at the same IV dose and an appropriate volume of corresponding vehicle. […] The plasma samples were collected and stored at −80°C until analysis.
# as §1
# PK/PD and PK/PD/DIS progression models were developed considering the mechanism of action of the investigated compounds, the mechanisms of disease progression in the case of CIA, and the subsequent stages leading to TNF-α release in the case of LPS-induced endotoxemia. Various numbers of transit compartments were tested during development of the models, and the final models were chosen based on the goodness-of-fit criteria, such as AIC, SBC, a visual inspection of the fitting, and parameter precision. Estimated values of pharmacokinetic parameters were fixed during PK/PD and PK/PD/DIS progression model fitting procedures. […] PK/PD and PK/PD/DIS progression modeling were performed in ADAPT 5 software using the weighted least squares algorithm.
# Therefore, as a result of PK/PD analysis, three sets of pharmacodynamic parameters were obtained based on the data from the three individual experiments.
# The applied model is a modified indirect response model ([19]) with implemented transit compartments (T1-T4) that describe the delay of the observed pharmacodynamic response. In this scheme τ is the mean transit time, kin is the time limited (from 0 to tlag) zero-order rate constant of production of a TNF-α precursor (e.g., TNF-α mRNA). Different numbers of transit compartments were tested during the model development, but the best fit was observed using four transit compartments.
# All Imax values were fixed to 1.
# [3] = tested on: collagen-induced arthritis (CIA) in female Lewis rats; assay: Body weight, clinical score and paw areas in CIA rats; assay type: in vivo, rat; settings: CIA rats vs control group; rolipram at all assessments post 20th day, (±)-LSF at 26, 33, and 36 day
# Description: At a day 0 of the experiment animals were subcutaneously (SC) injected at the base of the tail with 200 μL of the emulsion using a 27 gauge × 5/8″ needle and Hamilton syringe. At day 7 after the initial immunization, a booster injection with 100 μL of emulsion was performed. Ninety % of rats developed symptoms of disease (paw swelling >150% of day 0) at day 20 of the experiment. At this day, diseased animals were randomly divided into five groups (n = 6). […] One investigated group received (±)-LSF dissolved in saline at an SC dose of 80 mg kg^−1 once daily. The corresponding control groups were administered with appropriate volumes of vehicles IP or SC. At day 40 animals were sacrificed. Hind paws of rats were taken and immersed into 4% buffered formalin solution for a subsequent histological analysis. Blood samples were collected and allowed to clot for 20 min and then centrifuged at 2000 x g for 15 min. Serum samples were collected and frozen at -80°C.
# Body weight and paw size were measured, and clinical score was assessed at days 0, 5, 7, 11, 15, 18, 20, 22, 26, 30, 33, and 36 after the first immunization. Body weight of each rat was normalized to the body weight of the same rat at the day of the first immunization. Disease progression was evaluated by a qualitative clinical score (CS) as described elsewhere (1), where 0 – no symptoms of the disease, such as redness or swelling, 1 – mild, but definite redness and swelling, 2 – moderate redness and swelling, 3 – severe redness and swelling, and 4 – maximally inflamed limbs.
# [4] = read-out: IC50, concentration of compound producing 50% of Imax (inhibition of TNF-α release in vivo), Final estimate (CV%), plasma concentration, PK/PD model, Imax fixed to 1, male Wistar rats, LPS 1 mg kg^−1 IV, IV GRMS-55 20, rolipram 5, (±)-LSF and PTX 40 and 80 mg kg^−1
SMILES,TNF-α release in mice serum (result in words) [1],"activities of transaminases (ALT, AST) in mice sera (result in words) [1]","IC50 [2, 4] [µg/mL]","potency in inhibiting TNF-α release in vivo, times stronger than PTX ([2]; ratio of IC50 values)","activity in inhibiting TNF-α release in vivo, times lower than that of rolipram [2]",clinical score values (result in words) [3],"IC50 ([2]; read-out: IC50, concentration of compound producing 50% of Imax (inhibition of TNF-α release in vivo), Final estimate (CV%)) [µg/mL]"
"CC(O)CCCCn1c(=O)c2c(ncn2C)n(C)c1=O (racemic) [(±)-LSF, lisofylline]",significantly reducing TNF-α levels,failed to decrease the activities of transaminases,5.8,~ 2.4 times,~ 16 times,significantly lower,–
"Cn1c(=O)c2c(nc(NCCc3ccccc3)n2CCCC(=O)NN=Cc2ccccc2O)n(C)c1=O [GRMS-55, 4-(1,3-Dimethyl-2,6-dioxo-8-(phenethylamino)-2,3,6,7-tetrahydro-1H-purin-7-yl)-N′-(2-hydroxybenzylidene)butanehydrazide]",most potently inhibited TNF-α release,significantly reduced,~1.1,–,~ 3 times,did not decreased significantly,–
"COc1ccc(C2CNC(=O)C2)cc1OC1CCCC1 (stereo not drawn) [Rolipram, rolipram]",most potently inhibited TNF-α release,significantly reduced,–,–,–,significantly lower,0.36
